Assay type in all cases: biochemical
Holding throughout (conditions): Table 8

Test [1] relates to Rabbit Skeletal myofibrils (rabbit psoas muscle). The experiment in a line: Myofibril ATPase assay (PK/LDH NADH-coupled), skeletal myofibrils. On the procedure:
(§1) Myofibril ATPase assays are known in the art to be useful in evaluating small molecules for the treatment of HCM and other cardiac indications. Myosin ATPase activity is assessed by using a coupled reaction system, in which ADP generated by the myosin ATPase function is coupled to the disappearance of NADH through the pyruvate kinase/lactate dehydrogenase (PK-LDH) system. ATPase activity produces ADP, which is used as a substrate for PK to produce pyruvate and regenerate ATP. The pyruvate is then used as a substrate by LDH to oxidize NADH to NAD+. The rate of the reaction is monitored through the time-dependent disappearance of NADH using absorbance at 340 nm, which, when the couple system is in stoichiometric excess, is directly correlated to the ATPase activity of the myosin. Inhibition of ATPase activity by the assayed compounds is indicated by a reduced rate of NADH loss, relative to vehicle-treated controls, over the experimental time window. Rabbit Skeletal and Porcine Ventricle are the primary sources of myofibril material.
(§2) Materials: The following stock solutions and reagents were used in the Myofibril ATPase Assay:
(§3) Stock Solutions of pCa buffer. Combine PIPES, CaCl2), and EGTA solutions with water. Adjust pH to 7.0 and bring final volume to 100 mL.
(§4) Buffer A & Buffer B. Prepare buffers A and B according to the table below.
(§5) Myofibril ATPase Assay Procedure: BSA, ATP, NADH, PEP, and DTT solutions were thawed at room temperature, then transferred to ice. Pellet-frozen myofibrils were transferred with approximately twice the required volume into a sufficiently large tube and capped. Myofibrils were thawed by rolling in a water bath for approximately 15 min at room temperature and cooled on ice. Buffers A and B were prepared by adjusting volumes as necessary for required number of wells and stored on ice. 0.5 μL of the compounds to be assayed were added into wells. 25 μL of Buffer A was dispensed into the wells, followed by 25 μL of Buffer B. The wells were measured for absorbance at 340 nm, using a kinetic protocol in which the wells are read every 1.5-2 min for 75 min. Assay data analysis was performed using a python script that filtered the raw data to retain those points falling between a starting and ending time and between a maximum and minimum absorbance, then used the filtered time-domain 340 nm absorbance data in each well to calculate a slope via linear regression analysis in units of mAU/min. Compound slopes were normalized between 100% and 0% activity, where 100% represented the slope of wells containing only compound vehicle, and fit to a 4-parameter logistic model. In addition to the fit parameters, the EC25% is calculated, relative to the 100% normalized value. In the case of inhibitors, EC50% is also calculated, if available. Fit parameters, calculated effective concentrations, filtered raw data, and calculated slopes were exported, in addition to compound-specific graphs of normalized ATPase activity versus concentration in μM.
Skeletal Myofibril Isolation:
Myofibrils from various animals and tissue types were acquired from a variety of sources: rabbit psoas muscle was purchased from Pel-Freez Biologicals (Rogers, AR) and porcine cardiac muscle was purchased from Exemplar Genetics. All myofibrils were prepared using a method based upon those described in Herrmann et al. (1993) and summarized here. Minced tissue was homogenized for 50 sec with a Polytron homogenizer into 10 volumes (relative to weight in grams) of Isolation Buffer A (50 mM Tris, pH 8.0, 0.1 M potassium acetate, 5 mM KCl, 2 mM DTT, 5 mM EDTA, 0.5% v/v Triton X-100) supplemented with 0.1 mM PMSF, 10 μM leupeptin, 5 μM pepstatin, and 0.5 mM sodium azide. The myofibrils were recovered by centrifugation (Beckman Allegra 6R, 1200 g, 10 min) and resuspended in 10 volumes Isolation Buffer B (Buffer A above without protease inhibitors or sodium azide). The myofibrils were further homogenized as before and recovered by centrifugation. […]

The target in test [2] is T1, Porcine Ventricle myofibrils (left ventricle of Yucatan minipigs) (Sus scrofa, UniProt P79293).
T1 construct: Myofibrils from porcine cardiac muscle was isolated from the left ventricle of Yucatan minipigs; tissue Exemplar Genetics; host or cells: left ventricle of Yucatan minipigs
Kind of test: Myofibril ATPase assay (PK/LDH NADH-coupled), ventricle myofibrils. Here is the method: as §1, §2, §3, §4, §5
Cardiac Myofibril Isolation:
Myofibrils from porcine cardiac muscle was isolated from the left ventricle of Yucatan minipigs. Myofibrils were prepared using a method based upon those described in Herrmann et al. (1993) and summarized here. Minced tissue was homogenized for 50 sec with a Polytron homogenizer into 10 volumes (relative to weight in grams) of Isolation Buffer A (75 mM KCl, 10 mM Imidazole, 2 mM MgCl2, 2 mM EGTA, 1 mM NaN3, 1% v/v Triton X-100) supplemented with 4 mM Phosphocreatine, 1 mM ATP, 50 mM BDM, 1 mM DTT, 1 mM Benzamide HCl, 0.1 mM PMSF, 10 μM leupeptin, 5 μM pepstatin, and 10 mM EDTA. The myofibrils were recovered by centrifugation (Beckman Allegra 6R, 1200 g, 15 min) and resuspended in 10 volumes Isolation Buffer B (Buffer A above without supplemental reagents). The myofibrils were further homogenized described above and recovered by centrifugation for 7 mins. Cellular membranes and debris were removed by 3 washes in Isolation Buffer B, centrifuging each as before. […]

The next test has as its system Porcine Atria myofibrils. The experiment in a line: Myofibril ATPase assay (PK/LDH NADH-coupled), atria myofibrils. On the procedure: as §5

T1 sequence (P79293 whole entry): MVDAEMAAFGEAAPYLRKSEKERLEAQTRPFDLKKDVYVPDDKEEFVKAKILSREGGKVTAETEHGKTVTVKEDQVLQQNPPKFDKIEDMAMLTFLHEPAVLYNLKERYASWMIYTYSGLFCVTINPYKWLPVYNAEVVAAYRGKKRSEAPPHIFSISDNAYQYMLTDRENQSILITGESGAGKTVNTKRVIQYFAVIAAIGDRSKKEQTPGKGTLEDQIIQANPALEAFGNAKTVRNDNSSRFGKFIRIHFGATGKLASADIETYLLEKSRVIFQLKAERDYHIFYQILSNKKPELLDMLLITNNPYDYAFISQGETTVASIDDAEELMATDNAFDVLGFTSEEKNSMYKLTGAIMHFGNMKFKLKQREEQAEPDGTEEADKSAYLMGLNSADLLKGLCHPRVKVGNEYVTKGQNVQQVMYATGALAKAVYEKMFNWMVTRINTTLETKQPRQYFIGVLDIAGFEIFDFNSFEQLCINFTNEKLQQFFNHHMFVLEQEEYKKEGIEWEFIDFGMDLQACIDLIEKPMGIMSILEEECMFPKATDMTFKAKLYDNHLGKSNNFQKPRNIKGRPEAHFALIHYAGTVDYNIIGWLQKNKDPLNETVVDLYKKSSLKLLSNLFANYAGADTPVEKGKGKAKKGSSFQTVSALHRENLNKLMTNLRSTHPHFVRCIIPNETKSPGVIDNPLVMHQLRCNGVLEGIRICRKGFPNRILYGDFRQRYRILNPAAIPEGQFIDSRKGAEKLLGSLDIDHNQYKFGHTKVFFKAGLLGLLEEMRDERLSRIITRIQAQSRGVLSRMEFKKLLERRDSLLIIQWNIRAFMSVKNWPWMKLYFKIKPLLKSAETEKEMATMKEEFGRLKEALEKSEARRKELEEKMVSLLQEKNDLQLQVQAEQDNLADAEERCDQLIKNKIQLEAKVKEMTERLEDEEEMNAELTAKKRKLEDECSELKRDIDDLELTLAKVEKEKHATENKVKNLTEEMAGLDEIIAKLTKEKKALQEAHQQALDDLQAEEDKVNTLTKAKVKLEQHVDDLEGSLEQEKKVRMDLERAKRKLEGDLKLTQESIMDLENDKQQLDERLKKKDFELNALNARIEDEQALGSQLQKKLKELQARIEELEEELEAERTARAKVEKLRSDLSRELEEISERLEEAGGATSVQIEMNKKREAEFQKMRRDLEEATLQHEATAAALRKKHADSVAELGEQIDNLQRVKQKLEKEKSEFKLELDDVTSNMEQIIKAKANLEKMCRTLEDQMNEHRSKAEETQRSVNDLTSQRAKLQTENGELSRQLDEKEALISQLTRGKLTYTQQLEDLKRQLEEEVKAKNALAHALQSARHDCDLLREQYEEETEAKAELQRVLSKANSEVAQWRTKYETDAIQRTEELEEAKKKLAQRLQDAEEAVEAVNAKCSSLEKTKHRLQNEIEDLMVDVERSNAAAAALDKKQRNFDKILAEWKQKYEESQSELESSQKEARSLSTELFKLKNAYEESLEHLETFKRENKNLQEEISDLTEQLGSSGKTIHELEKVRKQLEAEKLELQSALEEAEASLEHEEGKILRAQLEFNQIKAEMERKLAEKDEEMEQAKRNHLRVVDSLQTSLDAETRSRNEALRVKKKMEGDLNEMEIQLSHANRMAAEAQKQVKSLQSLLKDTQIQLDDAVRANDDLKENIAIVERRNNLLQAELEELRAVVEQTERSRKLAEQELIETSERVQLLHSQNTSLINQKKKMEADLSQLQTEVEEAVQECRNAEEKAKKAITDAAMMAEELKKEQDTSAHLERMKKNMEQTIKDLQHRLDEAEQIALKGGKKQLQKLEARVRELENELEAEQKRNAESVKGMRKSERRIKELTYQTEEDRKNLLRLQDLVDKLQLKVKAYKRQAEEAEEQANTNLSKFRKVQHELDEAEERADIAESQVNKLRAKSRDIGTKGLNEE

Consider `Cc1cc(C#N)cnc1[C@@H](C)NC(=O)CN1Cc2c(ccc(F)c2F)NC1=O` [Compound B8], for which, in test [1], the “Rabbit Psoas IC25” value was determined as 1.018 µM. Moreover, the “Porcine Ventricle IC25” value in test [2] came to 0.6039 µM. The “Porcine Atria IC25” value in the test on Porcine Atria myofibrils came to 0.43 µM.
The corresponding values for `Cc1cc(C#N)cnc1[C@H](C)NC(=O)CN1Cc2c(ccc(F)c2F)NC1=O` [Compound B9] are 0.0224 µM, 0.0379 µM and 0.04 µM.
As to `C[C@@H](NC(=O)CN1Cc2c(F)cc(C#N)cc2NC1=O)c1ccc(C#N)cc1F` [Compound B10], the “Rabbit Psoas IC25” value in test [1] is 29.08 µM. In test [2], the “Porcine Ventricle IC25” value worked out at 8.204 µM. For the same compound, the “Porcine Atria IC25” value in the test with Porcine Atria myofibrils turned out to be 100.00 µM.
Consider `C[C@H](NC(=O)CN1Cc2c(F)cc(C#N)cc2NC1=O)c1ccc(C#N)cc1F` [Compound B11, N-[(1S)-1-(4-Cyano-2-fluorophenyl)ethyl]-2-(7-cyano-5-fluoro-2-oxo-1,4-dihydroquinazolin-3-yl)acetamide], for which, in test [1], the “Rabbit Psoas IC25” value was found to be 49.64 µM. In addition, the “Porcine Ventricle IC25” value in test [2] was determined as 100 µM. The “Porcine Atria IC25” value in the test on Porcine Atria myofibrils turned out to be 100.00 µM.
The matching figures for `Cc1cc(F)c2c(c1)NC(=O)N(CC(=O)N[C@H](C)c1ccc(C#N)cc1F)C2` [Compound B12]: 0.7606 µM, 0.143 µM and 0.88 µM.
The matching figures for `Cc1cc(F)c2c(c1)NC(=O)N(CC(=O)N[C@@H](C)c1ccc(C#N)cc1F)C2` [Compound B13, N-[(1S)-1-(4-Cyano-2-fluorophenyl)ethyl]-2-(5-fluoro-7-methyl-2-oxo-1,4-dihydroquinazolin-3-yl)acetamide]: 0.0132 µM, 0.086 µM and 0.06 µM.
The matching figures for `CCc1cc(F)cnc1[C@@H](C)NC(=O)CN1Cc2c(ccc(F)c2F)NC1=O` [Compound B14]: 0.0934 µM, 0.0844 µM and 0.15 µM.
On to `CCc1cc(F)cnc1[C@H](C)NC(=O)CN1Cc2c(ccc(F)c2F)NC1=O` [Compound B15], for which the “Rabbit Psoas IC25” value in test [1] turned out to be 100 µM. Besides, the “Porcine Ventricle IC25” value in test [2] was found to be 100 µM. Also, the “Porcine Atria IC25” value in the test on Porcine Atria myofibrils stood at 100.00 µM.
Regarding `C[C@@H](NC(=O)CN1Cc2c(ccc(F)c2F)NC1=O)c1ccc(C#N)nn1` [Compound B16], in test [1], the “Rabbit Psoas IC25” value is 1.205 µM. Further, the “Porcine Ventricle IC25” value in test [2] turned out to be 1.057 µM. Besides, the “Porcine Atria IC25” value in the test with Porcine Atria myofibrils is 0.23 µM.
In the case of `O=C(CN1Cc2c(ccc(F)c2F)NC1=O)N[C@@H]1CS(=O)(=O)c2cc(F)cc(F)c21` [Compound B18], in test [1], the “Rabbit Psoas IC25” value was 100 µM. In addition, the “Porcine Ventricle IC25” value in test [2] came to 100 µM. The “Porcine Atria IC25” value with Porcine Atria myofibrils is 2.25 µM.
`O=C(CN1Cc2c(ccc(F)c2F)NC1=O)N[C@H]1CS(=O)(=O)c2cc(F)cc(F)c21` [Compound B19]: the “Rabbit Psoas IC25” value in test [1] was 100 µM. In addition, the “Porcine Ventricle IC25” value in test [2] is 100 µM. In addition, in the test on Porcine Atria myofibrils, the “Porcine Atria IC25” value was found to be 100.00 µM.
Regarding `CC(C)c1cc(F)cnc1[C@@H](C)NC(=O)CN1Cc2c(ccc(F)c2F)NC1=O` [Compound B20], in test [1], the “Rabbit Psoas IC25” value turned out to be 100 µM. For the same compound, in test [2], the “Porcine Ventricle IC25” value was found to be 100 µM. Also, the “Porcine Atria IC25” value in the test with Porcine Atria myofibrils came to 100.00 µM.
For `CC(C)c1cc(F)cnc1[C@H](C)NC(=O)CN1Cc2c(ccc(F)c2F)NC1=O` [Compound B21], in test [1], the “Rabbit Psoas IC25” value came to 100 µM. Moreover, the “Porcine Ventricle IC25” value in test [2] was 100 µM. Besides, the “Porcine Atria IC25” value with Porcine Atria myofibrils was found to be 100.00 µM.
On to `Cc1cc(C#N)nnc1[C@@H](C)NC(=O)CN1Cc2c(ccc(F)c2F)NC1=O` [Compound B22], for which, in test [1], the “Rabbit Psoas IC25” value is 0.9012 µM. For the same compound, the “Porcine Ventricle IC25” value in test [2] came out at 6.451 µM. For the same compound, the “Porcine Atria IC25” value with Porcine Atria myofibrils turned out to be 10.83 µM.
On to `Cc1ccnnc1[C@@H](C)NC(=O)CN1Cc2c(ccc(F)c2F)NC1=O` [Compound B24], for which the “Rabbit Psoas IC25” value in test [1] turned out to be 30.61 µM. The “Porcine Ventricle IC25” value in test [2] was found to be 100 µM. Also, in the test on Porcine Atria myofibrils, the “Porcine Atria IC25” value was determined as 100.00 µM.
The corresponding values for `C[C@@H](NC(=O)CN1Cc2cc(F)cc(C#N)c2NC1=O)c1ccc(C#N)cc1F` [Compound B26] are 100 µM, 100 µM and 100.00 µM.
As to `C[C@H](NC(=O)CN1Cc2cc(F)cc(C#N)c2NC1=O)c1ccc(C#N)cc1F` [Compound B27], the “Rabbit Psoas IC25” value in test [1] turned out to be 0.5422 µM. Moreover, the “Porcine Ventricle IC25” value in test [2] stood at 15.59 µM. Besides, the “Porcine Atria IC25” value with Porcine Atria myofibrils was found to be 2.10 µM.
With `C[C@@H](NC(=O)CN1Cc2cc(F)cc(F)c2NC1=O)c1ccc(C#N)cc1F` [Compound B28], the “Rabbit Psoas IC25” value in test [1] amounted to 100 µM. In test [2], the “Porcine Ventricle IC25” value turned out to be 100 µM. For the same compound, the “Porcine Atria IC25” value in the test with Porcine Atria myofibrils was found to be 6.24 µM.
On to `C[C@H](NC(=O)CN1Cc2cc(F)cc(F)c2NC1=O)c1ccc(C#N)cc1F` [Compound B29], for which, in test [1], the “Rabbit Psoas IC25” value stood at 0.1245 µM. Also, in test [2], the “Porcine Ventricle IC25” value came to 0.6824 µM. Also, the “Porcine Atria IC25” value in the test on Porcine Atria myofibrils stood at 0.11 µM.
With `Cc1ccc2c(c1F)CN(CC(=O)N[C@H](C)c1ccc(C#N)cc1F)C(=O)N2` [Compound B30], the “Rabbit Psoas IC25” value in test [1] came out at 100 µM. For the same compound, the “Porcine Ventricle IC25” value in test [2] came to 100 µM. In addition, in the test on Porcine Atria myofibrils, the “Porcine Atria IC25” value was found to be 0.07 µM.
For `Cc1ccc2c(c1F)CN(CC(=O)N[C@@H](C)c1ccc(C#N)cc1F)C(=O)N2` [Compound B31, N-[(1S)-1-(4-cyano-2-fluorophenyl)ethyl]-2-(5-fluoro-6-methyl-2-oxo-1,4-dihydroquinazolin-3-yl)acetamide], in test [1], the “Rabbit Psoas IC25” value was 0.01 µM. In test [2], the “Porcine Ventricle IC25” value turned out to be 0.0421 µM. In addition, the “Porcine Atria IC25” value with Porcine Atria myofibrils was found to be 0.02 µM.
The matching figures for `C[C@@H](NC(=O)CN1Cc2c(F)cc(Cl)cc2NC1=O)c1ccc(C#N)cc1F` [Compound B32]: 1.003 µM, 0.548 µM and 0.28 µM.
The corresponding values for `C[C@H](NC(=O)CN1Cc2c(F)cc(Cl)cc2NC1=O)c1ccc(C#N)cc1F` [Compound B33, 2-(7-Chloro-5-fluoro-2-oxo-1,4-dihydroquinazolin-3-yl)-N-[(1S)-1-(4-cyano-2-fluorophenyl)ethyl]acetamide] are 0.0093 µM, 0.0667 µM and 0.02 µM.
The corresponding values for `Cc1cc([C@@H](C)NC(=O)CN2Cc3c(ccc(F)c3F)NC2=O)ncc1C#N` [Compound B34] are 100 µM, 3.618 µM and 0.16 µM.

The values are drawn from patent US12509431B2, “1,4-dihydroquinazolinone compounds and uses thereof” (Edgewise Therapeutics, Inc., priority 2022, dated 2025).
